According to the Kinase Knowledgebase extract (Sharma et al. 2016):

Target: ROCK2 (human) (UniProt O75116)
Test: Inhibition of ROCK2 Kinase Activity

Sequence of ROCK2 (human) (O75116 whole entry, looked up): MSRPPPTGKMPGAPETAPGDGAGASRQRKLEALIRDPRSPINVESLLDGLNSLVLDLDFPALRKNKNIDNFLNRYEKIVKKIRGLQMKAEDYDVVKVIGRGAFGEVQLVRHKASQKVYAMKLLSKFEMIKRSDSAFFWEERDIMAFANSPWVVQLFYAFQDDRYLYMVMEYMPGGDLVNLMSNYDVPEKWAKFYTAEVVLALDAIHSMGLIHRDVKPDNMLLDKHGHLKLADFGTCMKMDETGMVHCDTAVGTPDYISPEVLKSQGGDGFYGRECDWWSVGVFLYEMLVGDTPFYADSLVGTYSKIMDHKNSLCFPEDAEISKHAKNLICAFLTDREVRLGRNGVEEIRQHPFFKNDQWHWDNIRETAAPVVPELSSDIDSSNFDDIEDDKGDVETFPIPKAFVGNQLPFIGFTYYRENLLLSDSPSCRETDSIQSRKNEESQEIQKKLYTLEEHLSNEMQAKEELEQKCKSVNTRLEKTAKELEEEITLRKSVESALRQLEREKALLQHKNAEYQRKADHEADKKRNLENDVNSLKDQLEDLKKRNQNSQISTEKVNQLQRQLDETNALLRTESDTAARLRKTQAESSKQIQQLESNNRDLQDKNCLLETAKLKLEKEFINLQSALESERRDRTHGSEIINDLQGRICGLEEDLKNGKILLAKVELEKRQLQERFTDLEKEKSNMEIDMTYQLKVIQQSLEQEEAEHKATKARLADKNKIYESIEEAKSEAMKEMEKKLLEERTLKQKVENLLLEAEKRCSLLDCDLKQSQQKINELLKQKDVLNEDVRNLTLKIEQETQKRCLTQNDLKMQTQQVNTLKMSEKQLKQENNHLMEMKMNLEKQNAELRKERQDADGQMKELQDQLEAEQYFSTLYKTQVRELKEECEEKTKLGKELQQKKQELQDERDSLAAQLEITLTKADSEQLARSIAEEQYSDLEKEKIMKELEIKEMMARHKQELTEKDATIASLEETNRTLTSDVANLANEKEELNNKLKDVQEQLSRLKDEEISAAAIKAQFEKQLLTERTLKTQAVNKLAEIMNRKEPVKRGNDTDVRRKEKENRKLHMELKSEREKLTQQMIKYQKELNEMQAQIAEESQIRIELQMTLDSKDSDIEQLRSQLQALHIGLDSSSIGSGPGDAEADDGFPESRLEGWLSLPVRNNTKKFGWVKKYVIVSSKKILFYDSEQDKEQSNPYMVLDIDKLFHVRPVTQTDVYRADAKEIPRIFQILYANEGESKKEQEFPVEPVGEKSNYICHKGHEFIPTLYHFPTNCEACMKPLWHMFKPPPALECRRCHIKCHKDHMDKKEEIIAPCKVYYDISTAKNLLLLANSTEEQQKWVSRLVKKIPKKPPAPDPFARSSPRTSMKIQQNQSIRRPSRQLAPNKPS

| SMILES | IC50 [nM] |
| --- | --- |
| NC(CC(=O)N1CCc2ccc(F)cc2C1)c1ccc(C(=O)Nc2ccncc2)cc1 (stereo not drawn) | < 500 |
| CS(=O)(=O)NCCNC(=O)C(N)c1ccc(C(=O)Nc2ccncc2)cc1 (stereo not drawn) | 500 to 5000 |
| NC(c1ccc(C(=O)Nc2ccncc2)cc1)C1CCCN1S(=O)(=O)c1ccc(F)cc1 (stereo not drawn) | 500 to 5000 |
| NC(C(=O)N1CC=C(c2ccc(F)cc2)CC1)c1ccc(C(=O)Nc2ccncc2)cc1 (stereo not drawn) | 500 to 5000 |
| NC(CC(=O)N1CCCCC1c1ccc(Cl)cc1)c1ccc(C(=O)Nc2ccncc2)cc1 (stereo not drawn) | < 500 |
| NC(CC(=O)N1CCCC1c1cc(F)ccc1F)c1ccc(C(=O)Nc2ccncc2)cc1 (stereo not drawn) | < 500 |
| CC[C@H](NC(=O)C(N)c1ccc(C(=O)Nc2ccncc2)cc1)c1ccccc1 (stereo partly drawn) | 500 to 5000 |
| NC(c1ccc(C(=O)Nc2ccncc2)cc1)C1CCCN1S(=O)(=O)c1cccc(Cl)c1 (stereo not drawn) | 500 to 5000 |
| NC(C(=O)NCc1cccc(Cl)c1)c1ccc(C(=O)Nc2ccncc2)cc1 (stereo not drawn) | < 500 |
| N[C@H](CC(=O)N1CCC[C@H]1c1cccc(F)c1)c1ccc(C(=O)Nc2ccncc2)cc1 | < 500 |
| CN(CC(N)c1ccc(C(=O)Nc2ccncc2)cc1)S(=O)(=O)c1cccc(F)c1 (stereo not drawn) | 500 to 5000 |
| CC(C)C(C)NC(=O)C(N)c1ccc(C(=O)Nc2ccncc2)cc1 (stereo not drawn) | 500 to 5000 |
| COCC(C)NC(=O)C(N)c1ccc(C(=O)Nc2ccncc2)cc1 (stereo not drawn) | 500 to 5000 |
| NC(c1ccc(C(=O)Nc2ccncc2)cc1)C1CCCN1S(=O)(=O)c1ccc(Cl)cc1 (stereo not drawn) | 500 to 5000 |
| NC(C(=O)N1CCOCC1)c1ccc(C(=O)Nc2ccncc2)cc1 (stereo not drawn) | < 500 |
| NC(CC(=O)N1CCCC1c1ccc(F)cc1)c1ccc(C(=O)Nc2ccncc2)cc1 (stereo not drawn) | < 500 |
| NC(CC(=O)N1Cc2ccccc2C1)c1ccc(C(=O)Nc2ccncc2)cc1 (stereo not drawn) | < 500 |
| CCCCNNC(=O)C(N)c1ccc(C(=O)Nc2ccncc2)cc1 (stereo not drawn) | < 500 |
| NC(CNS(=O)(=O)c1cccc(Cl)c1)c1ccc(C(=O)Nc2ccncc2)cc1 (stereo not drawn) | < 500 |
| NC(C(=O)NCc1ccccc1Cl)c1ccc(C(=O)Nc2ccncc2)cc1 (stereo not drawn) | < 500 |
| CN(Cc1ccccc1)C(=O)C(N)c1ccc(C(=O)Nc2ccncc2)cc1 (stereo not drawn) | < 500 |
| NC(CC(=O)N1CCCCC1)c1ccc(C(=O)Nc2ccncc2)cc1 (stereo not drawn) | < 500 |
| NC(C(=O)NCc1ccccn1)c1ccc(C(=O)Nc2ccncc2)cc1 (stereo not drawn) | 500 to 5000 |
| N[C@@H](CC(=O)N1CCC[C@H]1c1cccc(F)c1)c1ccc(C(=O)Nc2ccncc2)cc1 | < 500 |
| NC(CC(=O)N1CCOCC1c1ccccc1)c1ccc(C(=O)Nc2ccncc2)cc1 (stereo not drawn) | < 500 |
| NC(CNS(=O)(=O)c1cccc2ccccc12)c1ccc(C(=O)Nc2ccncc2)cc1 (stereo not drawn) | < 500 |

| SMILES | IC50 [nM] |
| --- | --- |
| NC(C(=O)N1CCC(c2nc3ccccc3o2)CC1)c1ccc(C(=O)Nc2ccncc2)cc1 (stereo not drawn) | < 500 |
| NC(C(=O)NCCN1CCOCC1)c1ccc(C(=O)Nc2ccncc2)cc1 (stereo not drawn) | 500 to 5000 |
| COc1ccc(CNC(=O)C(N)c2ccc(C(=O)Nc3ccncc3)cc2)cc1 (stereo not drawn) | < 500 |
| NC(CNS(=O)(=O)c1cccc2nsnc12)c1ccc(C(=O)Nc2ccncc2)cc1 (stereo not drawn) | < 500 |
| NC(C(=O)NCCc1ccccc1)c1ccc(C(=O)Nc2ccncc2)cc1 (stereo not drawn) | < 500 |
| NC(CC(=O)N1CCCCC1c1cc(Cl)ccc1Cl)c1ccc(C(=O)Nc2ccncc2)cc1 (stereo not drawn) | < 500 |
| NC(c1ccc(C(=O)Nc2ccncc2)cc1)C1CCCN1S(=O)(=O)c1ccccc1Cl (stereo not drawn) | 500 to 5000 |
| COc1cccc(C2CCCCN2C(=O)CC(N)c2ccc(C(=O)Nc3ccncc3)cc2)c1 (stereo not drawn) | < 500 |
| NC(CC(=O)N1CCCC1c1ccccc1)c1ccc(C(=O)Nc2ccncc2)cc1 (stereo not drawn) | < 500 |
| NC(c1ccc(C(=O)Nc2ccncc2)cc1)C1CCCN1S(=O)(=O)c1ccccc1F (stereo not drawn) | 500 to 5000 |
| NC(CC(=O)N1CCc2ccccc2C1)c1ccc(C(=O)Nc2ccncc2)cc1 (stereo not drawn) | < 500 |
| NC(CC(=O)N1CCCC1c1cccc(Cl)c1)c1ccc(C(=O)Nc2ccncc2)cc1 (stereo not drawn) | < 500 |
| NC(C(=O)NCCn1ccnc1)c1ccc(C(=O)Nc2ccncc2)cc1 (stereo not drawn) | 500 to 5000 |
| Cc1ccc(S(=O)(=O)NCC(N)c2ccc(C(=O)Nc3ccncc3)cc2)cc1 (stereo not drawn) | < 500 |
| COc1ccc(S(=O)(=O)N(C)CC(N)c2ccc(C(=O)Nc3ccncc3)cc2)cc1 (stereo not drawn) | < 500 |
| CN(CC(N)c1ccc(C(=O)Nc2ccncc2)cc1)S(=O)(=O)c1ccc(Cl)cc1 (stereo not drawn) | 500 to 5000 |
| CCCS(=O)(=O)NCC(N)c1ccc(C(=O)Nc2ccncc2)cc1 (stereo not drawn) | < 500 |
| CC1CCN(C(=O)C(N)c2ccc(C(=O)Nc3ccncc3)cc2)CC1 (stereo not drawn) | < 500 |
| NC(CC(=O)N1CCCCC1c1ccc(F)cc1)c1ccc(C(=O)Nc2ccncc2)cc1 (stereo not drawn) | < 500 |
| NC(C(=O)N1CCN(CCO)CC1)c1ccc(C(=O)Nc2ccncc2)cc1 (stereo not drawn) | 500 to 5000 |
| NC(C(=O)N1CCC(Cc2ccccc2)CC1)c1ccc(C(=O)Nc2ccncc2)cc1 (stereo not drawn) | 500 to 5000 |
| NC(CC(=O)N1CCC(c2c[nH]c3ccccc23)CC1)c1ccc(C(=O)Nc2ccncc2)cc1 (stereo not drawn) | < 500 |
| COc1ccc(S(=O)(=O)N(C)C[C@@H](N)c2ccc(C(=O)Nc3ccncc3)cc2)cc1 | < 500 |
| NC(CC(=O)N1CCCCC1c1ccccc1)c1ccc(C(=O)Nc2ccncc2)cc1 (stereo not drawn) | < 500 |
| NC(CC(=O)N1CCC(c2nc3ccccc3o2)CC1)c1ccc(C(=O)Nc2ccncc2)cc1 (stereo not drawn) | < 500 |
| NC(c1ccc(C(=O)Nc2ccncc2)cc1)C1CCCN1S(=O)(=O)c1cccc(F)c1 (stereo not drawn) | 500 to 5000 |

| SMILES | IC50 [nM] |
| --- | --- |
| COc1ccc(Cl)cc1C1CCCCN1C(=O)CC(N)c1ccc(C(=O)Nc2ccncc2)cc1 (stereo not drawn) | < 500 |
| CN(CC(N)c1ccc(C(=O)Nc2ccncc2)cc1)S(=O)(=O)c1ccccc1Cl (stereo not drawn) | 500 to 5000 |
| Cc1noc(C)c1S(=O)(=O)NCC(N)c1ccc(C(=O)Nc2ccncc2)cc1 (stereo not drawn) | < 500 |
| NC(CC(=O)N1CCSC1)c1ccc(C(=O)Nc2ccncc2)cc1 (stereo not drawn) | < 500 |
| NC(C(=O)NC1CCCCC1)c1ccc(C(=O)Nc2ccncc2)cc1 (stereo not drawn) | 500 to 5000 |
| NC(CC(=O)N1CCN(Cc2ccc(F)cc2)CC1)c1ccc(C(=O)Nc2ccncc2)cc1 (stereo not drawn) | < 500 |
| COc1ccc(OC)c(S(=O)(=O)NCC(N)c2ccc(C(=O)Nc3ccncc3)cc2)c1 (stereo not drawn) | < 500 |
| NC(CNS(=O)(=O)c1ccc(-c2ccccc2)cc1)c1ccc(C(=O)Nc2ccncc2)cc1 (stereo not drawn) | 500 to 5000 |
| NC(CC(=O)N1CCc2c(Cl)cccc2C1)c1ccc(C(=O)Nc2ccncc2)cc1 (stereo not drawn) | < 500 |
| COc1ccccc1CNC(=O)C(N)c1ccc(C(=O)Nc2ccncc2)cc1 (stereo not drawn) | < 500 |
| COc1ccc(S(=O)(=O)N(C)C[C@H](N)c2ccc(C(=O)Nc3ccncc3)cc2)cc1 | 5000 to 50000 |
| NC(CNS(=O)(=O)c1ccc(Oc2ccccc2)cc1)c1ccc(C(=O)Nc2ccncc2)cc1 (stereo not drawn) | 500 to 5000 |
| CONC(=O)C(N)c1ccc(C(=O)Nc2ccncc2)cc1 (stereo not drawn) | 500 to 5000 |
| COc1ccc(S(=O)(=O)N2CCCC2C(N)c2ccc(C(=O)Nc3ccncc3)cc2)cc1 (stereo not drawn) | 500 to 5000 |
| NC(C(=O)NC1Cc2ccccc2C1)c1ccc(C(=O)Nc2ccncc2)cc1 (stereo not drawn) | < 500 |
| CC(C)N1CCN(C(=O)CC(N)c2ccc(C(=O)Nc3ccncc3)cc2)CC1 (stereo not drawn) | < 500 |
| NC(C(=O)NCC1CC1)c1ccc(C(=O)Nc2ccncc2)cc1 (stereo not drawn) | 500 to 5000 |
| NC(CNS(=O)(=O)c1ccc(F)cc1)c1ccc(C(=O)Nc2ccncc2)cc1 (stereo not drawn) | < 500 |
| NC(C(=O)N1CCCC1c1cccc(F)c1)c1ccc(C(=O)Nc2ccncc2)cc1 (stereo not drawn) | < 500 |
| CCC(C)(C)NC(=O)C(N)c1ccc(C(=O)Nc2ccncc2)cc1 (stereo not drawn) | 500 to 5000 |
| NC(CC(=O)N1CCc2c([nH]c3ccccc23)C1)c1ccc(C(=O)Nc2ccncc2)cc1 (stereo not drawn) | < 500 |
| NC(CC(=O)N1CCC(c2ccccc2)CC1)c1ccc(C(=O)Nc2ccncc2)cc1 (stereo not drawn) | < 500 |
| NC(C(=O)N1CCC(c2ccccc2)CC1)c1ccc(C(=O)Nc2ccncc2)cc1 (stereo not drawn) | 500 to 5000 |
| CN(CCO)C(=O)C(N)c1ccc(C(=O)Nc2ccncc2)cc1 (stereo not drawn) | 500 to 5000 |
| N[C@@H](C(=O)NCc1ccccc1)c1ccc(C(=O)Nc2ccncc2)cc1 | 500 to 5000 |
| NC(CC(=O)N1CC=C(c2ccc(F)cc2)CC1)c1ccc(C(=O)Nc2ccncc2)cc1 (stereo not drawn) | < 500 |

| SMILES | IC50 [nM] |
| --- | --- |
| COc1ccc(S(=O)(=O)NCC(N)c2ccc(C(=O)Nc3ccncc3)cc2)cc1OC (stereo not drawn) | < 500 |
| NC(CC(=O)N1CCCCC1c1cccc2ccccc12)c1ccc(C(=O)Nc2ccncc2)cc1 (stereo not drawn) | < 500 |
| NC(CC(=O)N1CCc2c([nH]c3ccccc23)C1c1cccc(Cl)c1)c1ccc(C(=O)Nc2ccncc2)cc1 (stereo not drawn) | 500 to 5000 |
| NC(C(=O)N1CCC(O)(c2ccccc2)CC1)c1ccc(C(=O)Nc2ccncc2)cc1 (stereo not drawn) | 500 to 5000 |
| CCCCS(=O)(=O)NCC(N)c1ccc(C(=O)Nc2ccncc2)cc1 (stereo not drawn) | < 500 |
| CN(CC(N)c1ccc(C(=O)Nc2ccncc2)cc1)S(=O)(=O)c1ccc(F)cc1 (stereo not drawn) | 500 to 5000 |
| NC(CC(=O)N1CCCC2CCCCC21)c1ccc(C(=O)Nc2ccncc2)cc1 (stereo not drawn) | < 500 |
| NC(CC(=O)N1CCCC1c1cccc(F)c1)c1ccc(C(=O)Nc2ccncc2)cc1 (stereo not drawn) | < 500 |
| NC(CNS(=O)(=O)c1cccc2nonc12)c1ccc(C(=O)Nc2ccncc2)cc1 (stereo not drawn) | < 500 |
| CN(CC(N)c1ccc(C(=O)Nc2ccncc2)cc1)S(=O)(=O)c1ccccc1F (stereo not drawn) | 500 to 5000 |
| Cc1ccccc1S(=O)(=O)NCC(N)c1ccc(C(=O)Nc2ccncc2)cc1 (stereo not drawn) | < 500 |
| NC(C(=O)NC1CCN(Cc2ccccc2)CC1)c1ccc(C(=O)Nc2ccncc2)cc1 (stereo not drawn) | 500 to 5000 |
| NC(C(=O)NCc1ccncc1)c1ccc(C(=O)Nc2ccncc2)cc1 (stereo not drawn) | 500 to 5000 |
| NC(C(=O)N1CCCC(CO)C1)c1ccc(C(=O)Nc2ccncc2)cc1 (stereo not drawn) | 500 to 5000 |
| NC(CNS(=O)(=O)c1cccs1)c1ccc(C(=O)Nc2ccncc2)cc1 (stereo not drawn) | < 500 |
| NC(C(=O)N1CCN(Cc2ccc(F)cc2)CC1)c1ccc(C(=O)Nc2ccncc2)cc1 (stereo not drawn) | 500 to 5000 |
| NC(CC(=O)N1CCCC1c1ccc(Cl)c(Cl)c1)c1ccc(C(=O)Nc2ccncc2)cc1 (stereo not drawn) | < 500 |
| NC(C(=O)N1CCc2ccccc2C1)c1ccc(C(=O)Nc2ccncc2)cc1 (stereo not drawn) | < 500 |
| NC(CNS(=O)(=O)c1ccccc1Cl)c1ccc(C(=O)Nc2ccncc2)cc1 (stereo not drawn) | < 500 |
| NC(C(=O)NCC1CCCO1)c1ccc(C(=O)Nc2ccncc2)cc1 (stereo not drawn) | 500 to 5000 |
| NC(CNS(=O)(=O)c1ccccc1F)c1ccc(C(=O)Nc2ccncc2)cc1 (stereo not drawn) | < 500 |
| NC(C(=O)N1CCN(c2ccccc2)CC1)c1ccc(C(=O)Nc2ccncc2)cc1 (stereo not drawn) | 500 to 5000 |
| CC1CN(C(=O)C(N)c2ccc(C(=O)Nc3ccncc3)cc2)CC(C)O1 (stereo not drawn) | 500 to 5000 |
| CCCCCCCCS(=O)(=O)NCC(N)c1ccc(C(=O)Nc2ccncc2)cc1 (stereo not drawn) | 500 to 5000 |
| NC(CNS(=O)(=O)c1ccccc1)c1ccc(C(=O)Nc2ccncc2)cc1 (stereo not drawn) | < 500 |
